Key:
PN4 tumors = assay: Flow cytometry for ESA and CD44 on treated PN4 tumors; type: in vivo, NOD/SCID mice; details: PN4 tumors harvested day 85, 5 tumors pooled; control antibody 12.7%
Description: Control and treated tumors from the OMP-PN4 xenograft study described above were harvested at the end of the study (day 85). The tumors were processed and dissociated into single cells. Single cell suspensions derived from 5 tumors of each treatment group were pooled, and the pooled samples were then incubated on ice for 30 min with antibodies that bind mouse cells selectively (α-mouse CD45-biotin 1:200 dilution and rat α-mouse H2Kd-biotin 1:100 dilution, BioLegend, San Diego, Calif.), followed by addition of streptavidin-labeled magnetic beads (Invitrogen, Carlsbad, Calif.). Mouse cells were removed with the aid of a magnet. For analysis of human cell surface markers, the single tumor cell suspension was stained with anti-ESA (Biomeda, Hayward, Calif.) and anti-CD44 (BD Biosciences, San Jose, Calif.) antibodies which were directly conjugated to fluorochromes. Dead cells were excluded by using the viability dye DAPI. Flow cytometry was performed using a FACS Aria instrument (Becton Dickinson, Franklin Lakes, N.J.). Side scatter and forward scatter profiles were used to eliminate cell clumps.

PN4 pancreatic tumors = assay: In vivo limiting dilution assay of treated PN4 tumors; parameters: species or system NOD/SCID mice; details: day 75 after injection of 30, 90, 270 cells, control 7 out of 30
Description: Limiting dilution assays (LDA) can be used to assess the effect of therapeutic agents on solid tumor cancer stem cells and on the tumorigenicity of a tumor comprising the cancer stem cells. Such assays can be used to determine the frequency of cancer stem cells in tumors from animals treated with the FZD8-Fc fusion protein or other agent and to compare that frequency to the frequency of cancer stem cells in tumors from control animals. Control and treated tumors from the PN4 xenograft study described above were harvested at the end of the study (day 85). The tumors were processed and dissociated into single cells. […] The human cells in the suspension were harvested, counted, and stained for cell surface markers and appropriate cell doses (30, 90, and 270 cells) in FACS buffer were mixed in a 1:1 mixture with Matrigel and injected subcutaneously in NOD/SCID mice (10 mice per cell dose per treatment group). […] At the desired time point, the percentage of mice with detectable tumors was determined in all groups injected with FZD8-Fc-treated tumor cells and compared to the percentage of mice with detectable tumors in the controls. For example, the number of mice injected with 125 control antibody-treated tumor cells that have detectable tumors is determined and compared to the number of mice injected with 125 FZD8-Fc treated tumor cells that have detectable tumors. […]

PN21 pancreatic tumors = assay: In vivo limiting dilution assay of treated PN21 tumors; parameters: species or system NOD/SCID mice; details: day 72, L-Calc
Description: As described above in Example 3, a limiting dilution assays was used to assess the effect of treatment with FZD8-Fc alone or in combination with gemcitabine on solid tumor cancer stem cells in the PN21 pancreatic tumor model.
Control and treated tumors from the PN21 xenograft study described above were harvested at the end of the study. The tumors were processed and dissociated into single cells. […] The human cells in the suspension were harvested, counted, and stained for cell surface markers and appropriate cell doses (30, 90, and 270 cells) in FACS buffer were mixed in a 1:1 mixture with Matrigel and injected subcutaneously in NOD/SCID mice (10 mice per cell dose per treatment group). […]
At the desired time point, the percentage of mice with detectable tumors was determined in all groups injected with treated tumor cells and compared to the percentage of mice with detectable tumors in control treated cells. For example, the number of mice injected with 125 control antibody-treated tumor cells that have detectable tumors is determined and compared to the number of mice injected with 125 FZD8-Fc treated tumor cells that have detectable tumors.
On day 72 after injection of the cells, tumor take rates in the various groups were determined and the cancer stem cell frequency was calculated using L-Calc™ software (StemCell Technologies Inc.; www.stemcell.com).

SMILES: Nc1ccn([C@@H]2O[C@H](CO)[C@@H](O)C2(F)F)c(=O)n1 [gemcitabine, reference compound]
- bulk tumor population expressing both ESA and CD44 at high levels (double positive population) (PN4 tumors): 13.9%
- tumor take rate (PN4 pancreatic tumors): 7 mice out of 30 mice
- cancer stem cell frequency (PN21 pancreatic tumors): slightly increased

Source: US9157904B2, “Wnt antagonists and methods of treatment and screening” (OncoMed Pharmaceuticals, Inc., priority 2010, dated 2015)
